{"source": "patent US20150223465A1", "about": "“COMPOSITION CONTAINING 3-CYCLOPROPYL-1-ENYL-PROPANOIC ACID SALTS AND A CARRIER” (Yissum Research Development Company of the Hebrew …, priority 2012, published 2015)", "key": {"cut carnation flowers [1]": {"test_system": "cut carnation flowers", "experiment": "Delaying senescence of cut carnation flowers: loading 24 h in CPAS solution, then 2 ppm ethylene for 24 h, visual inspection/photographs", "type": "in vivo, carnation (Dianthus caryophyllus)", "design": "key: The result “−” means no ethylene antagonizing effect by visual inspection.; The result “+++” means high ethylene antagonizing effect by visual inspection.; The result “++++” means very high ethylene antagonizing effect by visual inspection", "conditions": "CPAS sodium salt 20-120 ppm, 36-55 cm stems", "excerpt": "(§1) The ethylene antagonizing effect of composition described herein can be assessed by its effect of delaying senescence of cut plants, such as cut flowers. Some embodiments of the present invention are based on the use of the composition described herein to treat cut flowers for delaying senescence of the cut flowers.\n(§2) Cut Flowers: Unless otherwise noted, carnation flowers grown in a greenhouse were harvested at the beginning of flower opening stage, early in the morning, and were immediately brought to the laboratory. The flowers were either processed immediately or stored in a cold room (4° C.) for 1 to 5 days as required.\n(§3) Treatment Procedure: The flower stems were cut under tap water to the desired lengths (15 cm-55 cm). Four flowers for each treatment group (of two flowers per each groups) were loaded in a 20 mL aqueous treatment solution (or “loading solution”) for 24 hours. The treatment solution was placed in a 35 mL tube. The loading solutions of CPAS in buffers were prepared in distilled water, as described hereinafter. At the end of CPAS loading, the flowers were transferred to tap water for 1 to 4 days until the cut flowers open. The cut flowers were then exposed to 2 ppm ethylene for 24 hours. Control cut flowers were loaded in a control solution without CPAS in the same manner as the treated cut flowers, and were thereafter exposed to ethylene or air. At the end of ethylene exposure, the flowers were ventilated and left in tap water under controlled conditions (a temperature of 22° C., a relative humidity of 80%, and continuous fluorescent light) for additional 5 days for senescence assessment."}, "carnation flowers": {"test_system": "carnation flowers", "experiment": "Loading 14-18 h with CPAS, 0-72 h in tap water, then ethylene for 24 h; vase life assessment", "type": "in vivo, carnation (Dianthus caryophyllus)", "conditions": "for protection from ethylene-induced senescence: loading 14-18 h, 1.0 ppm ethylene 24 h", "protocol": "Carnation flower stems were cut under tap water to the desired lengths (36 and 55 cm). Four flowers per treatment, in groups of two flowers each, were loaded for 14-18 hours in 20 mL of treatment solutions containing 0, 30, 60 and 120 mg L^−1 CPAS in either an aqueous solution containing sodium carbonate/sodium bicarbonate buffer (40 mM, pH=9.5) and 0.025% Tween 20 or an aqueous solution containing K-Phosphate Buffer (40 mM, pH=7.8) and 0.025% Tween 20. At the end of CPAS loading (14-18 hours), groups of treated flowers were transferred into tap water for 0, 24, 48 and 72 hours. The cut flowers were then exposed to 1.0 ppm ethylene for 24 hours. At the end of the ethylene treatment, the flowers were ventilated and left under controlled conditions for additional 11, 10, 9, 8 days, respectively, for vase life assessment. Pictures of were taken 13 days after beginning of the experiment. It is noted that the carnation flowers tested were highly sensitive to ethylene, and therefore exposure to ethylene at an amount of 1.0 ppm was effected."}, "cut carnation flowers [2]": {"test_system": "cut carnation flowers", "experiment": "Flower diameter of cut carnations after CPAS loading and ethylene exposure", "type": "in vivo, carnation (Dianthus caryophyllus)", "protocol": "as §3\nFlower Diameter: In some experiments, flower diameter was determined according to the method described in Goren et al., Plant Growth Regulation 65:327-334 (2011), to assess flower quality."}, "cut carnation flowers [3]": {"test_system": "cut carnation flowers", "experiment": "Water uptake of treated cut flowers", "conditions": "60 or 120 ppm CPAS in 20 mM NaHCO3 pH 8.2; 36 cm stems; 48 hours after termination of ethylene exposure (2 ppm, 24 h)", "method": "Water Uptake: The uptake of water by cut flowers was measured after CPAS loading and after ethylene exposure (exposure to 2 ppm ethylene for 24 hours, unless otherwise indicated). The aqueous treatment solution was maintained at 20 mL by addition of tap water after each treatment.\nAqueous treatment solutions of CPAS were prepared and tested, each of which contained 0, 60 or 120 ppm of CPAS in 20 mM NaHCO3 (pH 8.2). Cut flowers (36 cm long stems) were treated according to the treatment procedure described above."}, "cut carnation flowers [4]": {"test_system": "cut carnation flowers", "experiment": "Delaying senescence of cut carnation flowers: loading 24 h in CPAS solution, then 2 ppm ethylene for 24 h, visual inspection/photographs", "type": "in vivo, carnation (Dianthus caryophyllus)", "design": "key: The result “−” means no ethylene antagonizing effect by visual inspection.; The result “+” means low ethylene antagonizing effect by visual inspection.; The result “++” means medium ethylene antagonizing effect by visual inspection.; The result “+++” means high ethylene antagonizing effect by visual inspection.; The result “++++” means very high ethylene antagonizing effect by visual inspection", "conditions": "CPAS sodium salt 20-120 ppm, 36-55 cm stems", "excerpt": "as §1, §2\nTreatment Procedure: The flower stems were cut under tap water to the desired lengths (15 cm-55 cm). Four flowers for each treatment group (of two flowers per each groups) were loaded in a 20 mL aqueous treatment solution (or “loading solution”) for 24 hours. The treatment solution was placed in a 35 mL tube. The loading solutions of CPAS in buffers were prepared in distilled water, as described hereinafter. At the end of CPAS loading, the flowers were transferred to tap water for 1 to 4 days until the cut flowers open. The cut flowers were then exposed to 2 ppm ethylene for 24 hours. Control cut flowers were loaded in a control solution without CPAS in the same manner as the treated cut flowers, and were thereafter exposed to ethylene or air. […]"}}, "data": [{"smiles": "O=C([O-])CCC1=CC1.[Na+]", "note": "[CPAS, 3-cyclopropyl-1-enyl-propanoic acid salt]", "values": [{"measurement": "Results (efficacy of CPAS, ethylene antagonizing effect by visual inspection)", "setting": "cut carnation flowers [1]; Glycine/NaOH buffer 20 mM pH 8.8", "result": "−"}, {"measurement": "Results (efficacy of CPAS, ethylene antagonizing effect by visual inspection)", "setting": "cut carnation flowers [1]; H3BO3/NaOH buffer 20 mM pH 9.2", "result": "−"}, {"measurement": "Results (efficacy of CPAS, ethylene antagonizing effect by visual inspection)", "setting": "cut carnation flowers [1]; HCl-TRIS buffer 20 mM pH 8.4", "result": "−"}, {"measurement": "Results (efficacy of CPAS, ethylene antagonizing effect by visual inspection)", "setting": "cut carnation flowers [1]; Isopropylamine 500-1000 ppm pH 11.0", "result": "−"}, {"measurement": "Results (efficacy of CPAS, ethylene antagonizing effect by visual inspection)", "setting": "cut carnation flowers [1]; K-Citrate/Citric Ac. buffer 20 mM pH 4.65", "result": "−"}, {"measurement": "Results (efficacy of CPAS, ethylene antagonizing effect by visual inspection)", "setting": "cut carnation flowers [1]; K-Citrate/Citric Ac. buffer 20 mM pH 5.0 with 2,3-butanedione (500 ppm)", "result": "−"}, {"measurement": "Results (efficacy of CPAS, ethylene antagonizing effect by visual inspection)", "setting": "cut carnation flowers [1]; K-Citrate/Citric Ac. buffer 20 mM pH 5.0 with EMK (5%)", "result": "−"}, {"measurement": "Results (efficacy of CPAS, ethylene antagonizing effect by visual inspection)", "setting": "cut carnation flowers [1]; K-Citrate/Citric Ac. buffer 20 mM pH 5.0 with PVP (0.5%)", "result": "−"}, {"measurement": "Results (efficacy of CPAS, ethylene antagonizing effect by visual inspection)", "setting": "cut carnation flowers [1]; Na2B4O7/NaOH buffer 20 mM pH 9.4", "result": "−"}, {"measurement": "Results (efficacy of CPAS, ethylene antagonizing effect by visual inspection)", "setting": "cut carnation flowers [1]; Na2CO3/NaHCO3 buffer 40 mM pH 9.2-9.4 with Chloramphenicol 150 μM", "result": "++++"}, {"measurement": "Results (efficacy of CPAS, ethylene antagonizing effect by visual inspection)", "setting": "cut carnation flowers [1]; Na2CO3/NaHCO3 buffer 20-80 mM pH 9.2-9.4", "result": "++++"}, {"measurement": "Results (efficacy of CPAS, ethylene antagonizing effect by visual inspection)", "setting": "cut carnation flowers [1]; Na-Phosphate buffer 20 mM pH 6.0 + NaHCO3 60-80 mM, pH 7.4", "result": "+++"}, {"measurement": "Results (efficacy of CPAS, ethylene antagonizing effect by visual inspection)", "setting": "cut carnation flowers [1]; Na-Phosphate buffer 20 mM pH 7.6", "result": "−"}, {"measurement": "Results (efficacy of CPAS, ethylene antagonizing effect by visual inspection)", "setting": "cut carnation flowers [1]; Na-Phosphate/Citrate buffer 20 mM pH 6.0 + NaHCO3 60-80 mM, pH 7.2", "result": "+++"}, {"measurement": "Results (efficacy of CPAS, ethylene antagonizing effect by visual inspection)", "setting": "cut carnation flowers [1]; NaHCO3 40 mM pH 8.2 with Chloramphenicol 50 μM", "result": "+++"}, {"measurement": "Results (efficacy of CPAS, ethylene antagonizing effect by visual inspection)", "setting": "cut carnation flowers [1]; NaHCO3 20-80 mM pH 8.2", "result": "+++"}, {"measurement": "protection from ethylene-induced senescence", "setting": "carnation flowers; CPAS 60 and 120 mg L^−1 in K-Phosphate buffer 40 mM pH 7.8, 0.025% Tween 20", "result": "almost no protection"}, {"measurement": "protection from ethylene-induced senescence", "setting": "carnation flowers; CPAS 60 and 120 mg L^−1 in sodium carbonate/sodium bicarbonate buffer 40 mM pH 9.5, 0.025% Tween 20", "result": "significantly protected"}, {"measurement": "protection with ethylene treatment 2 and 3 days after pretreatment", "setting": "carnation flowers; CPAS at the two higher concentrations in Na-Carbonate buffer", "result": "more protected as the incubation time increases"}, {"measurement": "resistance to ethylene-induced flower senescence after pretreatment", "setting": "carnation flowers; ethylene exposure 3 days after pretreatment with CPAS", "result": "resistant"}, {"measurement": "senescence of cut flowers as measured by flower diameter", "setting": "cut carnation flowers [2]; 55 cm stems, 100, 120 or 140 ppm CPAS in Na-phosphate or Na-phosphate/citrate buffer containing NaHCO3", "result": "delayed senescence was generally observed"}, {"measurement": "effect of NaHCO3 concentration (60 or 80 mM) on treatment results", "setting": "cut carnation flowers [2]; 55 cm stems, CPAS in Na-phosphate buffer (20 mM) containing NaHCO3", "result": "did not significantly affect the treatment results"}, {"measurement": "effect of NaHCO3 concentration (60 or 80 mM) on treatment results", "setting": "cut carnation flowers [2]; 55 cm stems, CPAS in Na-phosphate/citrate buffer (20 mM) containing NaHCO3", "result": "80 mM NaHCO3 yielding better treatment results than 60 mM NaHCO3"}, {"measurement": "senescence of cut flowers as measured by flower diameter", "setting": "cut carnation flowers [2]; stem length 55 cm, 80 or 120 ppm CPAS in 40, 60 or 80 mM Na2CO3/NaHCO3 buffer", "result": "delayed senescence"}, {"measurement": "senescence of cut flowers as measured by flower diameter", "setting": "cut carnation flowers [2]; stem length 55 cm, 80 ppm CPAS in 80 mM NaHCO3", "result": "delayed senescence"}, {"measurement": "ethylene antagonizing effect compared among NaHCO3 concentrations", "setting": "cut carnation flowers [2]; stem length 55 cm, 120 ppm CPAS in 60 mM NaHCO3 versus 40 and 80 mM", "result": "highest ethylene antagonizing effect"}, {"measurement": "senescence of cut flowers as measured by flower diameter", "setting": "cut carnation flowers [2]; stem length 55 cm, 120 ppm CPAS in 40, 60 or 80 mM NaHCO3", "result": "delayed senescence"}, {"measurement": "water uptake of flowers", "setting": "cut carnation flowers [3]", "result": "increased water uptake"}, {"measurement": "Results (efficacy of CPAS, ethylene antagonizing effect by visual inspection)", "setting": "cut carnation flowers [4]; EDTA 500-1000 ppm", "result": "+"}, {"measurement": "Results (efficacy of CPAS, ethylene antagonizing effect by visual inspection)", "setting": "cut carnation flowers [4]; KHCO3 20-80 mM pH 8.2", "result": "++"}]}]}
